{"source": "patent US20060123501A1", "about": "“Method for treating inflammatory disorders” (priority 2004, published 2006)", "key": {"[1]": {"test_system": "cIAP2−/− and cIAP2+/+ mice", "assay": "Serum cytokine levels (ELISA) after i.p. LPS", "assay_type": "in vivo, mouse", "method": "LPS directly activates macrophages to produce large amounts of IL-1β and TNF-α and to mediate a cascade of events leading to endotoxic shock. We therefore assayed the levels of these pro-inflammatory cytokines in serum from cIAP2^−/− mice treated with LPS (35 mg LPS/kg). In cIAP2^−/− mice, IL-1β serum levels peaked at 4 h and then markedly dropped off (Table 4). This was in contrast to littermate controls where IL-1β levels decreased much later. […] As a further study, we also investigated the serum concentrations of IL-12 (Table 4) after an injection of LPS (35 mg/kg), yet again, we observed an attenuation of a macrophage cytokine, IL-12, by the 6 hour time point. Nevertheless, cIAP2^−/− mice did display early outward signs of sepsis, such as eye exudates and ruffled fur; however, their condition quickly ameliorated, corresponding to the observed waning of the LPS-induced inflammatory cytokines seen within the cIAP2^−/− mice.\nAdult 4-6 week old mice (n=3), cIAP2^−/− and littermate control mice, were injected i.p. with a LD100 dose of LPS (35 mg LPS/kg). At the appropriate times mice were anesthetized with phenobarbital and killed by cervical dislocation. The plasma was then collected from these animals and used to determine serum concentrations of IL-1β, TNF-α and IL-12 via an ELISA kit (R & D Systems)."}, "[2]": {"test_system": "cIAP2−/− mice and littermate controls", "conditions": "for LD100: i.p.", "method": "Mice were injected IP with a range of indicated LPS doses (n=15).\nSchoemaker et al. proposed an important role of cIAP2 in LPS-induced death of liver cells sensitized to endotoxic shock by D-galactosamine (DGLN) (22). […] Thus to investigate the role of cIAP2 in an innate immune response, the cIAP2^−/− mice were treated with LPS.\nAdult 4-6 week old mice (n=6 to 10) were injected intraperitoneally (i.p.) with a range of LPS doses (10 to 200 mg LPSD/kg) from E. coli (Sigma) in a total volume of 0.2 ml nonpyrogenic saline."}, "[3]": {"conditions": "cIAP2+/+ mice, 2 hours after i.p. LPS 35 mg/kg"}, "[4]": {"conditions": "cIAP2+/+ mice, 6 hours after i.p. LPS 35 mg/kg"}, "[5]": {"conditions": "cIAP2+/+ mice, 10 hours after i.p. LPS 35 mg/kg"}, "[6]": {"conditions": "cIAP2−/− mice, 2 hours after i.p. LPS 35 mg/kg"}, "[7]": {"conditions": "cIAP2−/− mice, 6 hours after i.p. LPS 35 mg/kg"}, "[8]": {"conditions": "cIAP2−/− mice, 10 hours after i.p. LPS 35 mg/kg"}}, "note": "Read-outs that look alike come from different tables or passages of the source.", "data": [{"substance": "lipopolysaccharide [LPS]", "values": [{"measurement": "IL-1β Serum Levels", "setting": "[1]; [3]", "value": "476 ± 24", "unit": "pg/mL"}, {"measurement": "IL-12 Serum Leves", "setting": "[1]; [3]", "value": "210 ± 17", "unit": "pg/mL"}, {"measurement": "TNFα Serum Levels", "setting": "[1]; [3]", "value": "1623 ± 348", "unit": "pg/mL"}, {"measurement": "IL-1β Serum Levels", "setting": "[1]; [4]", "value": "993 ± 158", "unit": "pg/mL"}, {"measurement": "IL-12 Serum Leves", "setting": "[1]; [4]", "value": "260 ± 31", "unit": "pg/mL"}, {"measurement": "TNFα Serum Levels", "setting": "[1]; [4]", "value": "502 ± 56", "unit": "pg/mL"}, {"measurement": "IL-1β Serum Levels", "setting": "[1]; [5]", "value": "669 ± 48", "unit": "pg/mL"}, {"measurement": "TNFα Serum Levels", "setting": "[1]; [5]", "value": "371 ± 64", "unit": "pg/mL"}, {"measurement": "IL-1β Serum Levels", "setting": "[1]; [6]", "value": "314 ± 153", "unit": "pg/mL"}, {"measurement": "IL-12 Serum Leves", "setting": "[1]; [6]", "value": "152 ± 24", "unit": "pg/mL"}, {"measurement": "TNFα Serum Levels", "setting": "[1]; [6]", "value": "1589 ± 413", "unit": "pg/mL"}, {"measurement": "IL-1β Serum Levels", "setting": "[1]; [7]", "value": "476 ± 78", "unit": "pg/mL"}, {"measurement": "IL-12 Serum Leves", "setting": "[1]; [7]", "value": "11 ± 5", "unit": "pg/mL"}, {"measurement": "TNFα Serum Levels", "setting": "[1]; [7]", "value": "202 ± 89", "unit": "pg/mL"}, {"measurement": "IL-1β Serum Levels", "setting": "[1]; [8]", "value": "162 ± 21", "unit": "pg/mL"}, {"measurement": "TNFα Serum Levels", "setting": "[1]; [8]", "value": "8 ± 7", "unit": "pg/mL"}, {"measurement": "Time of peak IL-1β serum levels", "setting": "[1]; cIAP2−/− mice, LPS 35 mg/kg", "value": 4, "unit": "h"}, {"measurement": "TNF-α serum levels", "setting": "[1]; cIAP2−/− mice, by 10 hours, LPS 35 mg/kg", "value": "approximately 10 pg/ml"}, {"measurement": "TNF-α serum levels (stabilized, maintained until death)", "setting": "[1]; littermate controls, LPS 35 mg/kg", "value": "approximately 400 pg/ml"}, {"measurement": "Survival", "setting": "[2]; all littermate controls, LPS dose of 60 mg/kg and above", "value": "did not survive past the first day"}, {"measurement": "Survival time", "setting": "[2]; cIAP2−/− mice, LPS dose of 200 mg LPS/kg", "value": "2 to 7", "unit": "days"}, {"measurement": "LD100", "setting": "[2]; cIAP2−/− mice", "value": 100, "unit": "mg LPS/kg"}, {"measurement": "Time within which all died", "setting": "[2]; control littermates, 40 mg LPS/kg", "value": "≤ 24", "unit": "h"}, {"measurement": "LD100", "setting": "[2]; control littermates", "value": 35, "unit": "mg LPS/kg"}, {"measurement": "LD100 of cIAP2−/− mice compared to that of control littermates", "setting": "[2]; i.p. LPS", "value": "approximately 3 ×"}]}]}
